Measured values from PMC5011490, “Effect of Tris, MOPS, and phosphate buffers on the hydrolysis of polyethylene terephthalate films by polyester hydrolases” (FEBS Open Bio, 2016).

Target: T1, TfCut2 (Thermobifida fusca, UniProt Q6A0I4)
T1 construct: gene cut2; gene without signal peptide from T. fusca KW3 genomic DNA, pET-20b(+) with pelB leader and His6 tag, E. coli BL21(DE3), purified
Test: PET film hydrolysis, released products by RP-HPLC; Lineweaver-Burk slope replot
Type: biochemical
Details: amorphous PET film substrate, 0.2 M sodium phosphate pH 8.0, 60 °C, 1 h; MOPS 0.05-0.075 M; competitive
Text: PET film hydrolysis, released products by RP-HPLC; Lineweaver-Burk slope replot on TfCut2

T1 sequence (Q6A0I4 41-301): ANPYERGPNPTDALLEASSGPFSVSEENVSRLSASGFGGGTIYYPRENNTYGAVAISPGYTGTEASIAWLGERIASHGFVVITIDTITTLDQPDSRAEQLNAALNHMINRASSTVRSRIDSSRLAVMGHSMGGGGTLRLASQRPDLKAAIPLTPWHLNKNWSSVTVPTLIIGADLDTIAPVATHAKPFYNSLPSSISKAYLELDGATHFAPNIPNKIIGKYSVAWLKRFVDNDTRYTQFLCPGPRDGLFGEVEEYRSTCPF

Ki: 80 mM
SMILES: O=S(=O)(O)CCCN1CCOCC1 [MOPS, 3‐(N‐morpholino)propanesulfonic acid]
